Assays:
[1] = system: GSH depletion; assay: UVA-induced GSH depletion in NHDF (DTNB); assay type: cell-based, human
Text: (§1) Normal human dermal fibroblasts (NHDF) were used as an in vitro model. Cells were isolated from tissue specimens obtained from healthy patients undergoing plastic surgery at the Department of Plastic and Aesthetic Surgery (University Hospital Olomouc). The use of skin tissue was in accordance with the Ethics Committee of the University Hospital and Faculty of Medicine and Dentistry, Palacky University, Olomouc and all patients signed written informed consent. Fibroblasts were used between the 2nd and 4th passage. […]
(§2) Test compounds included 6-(tetrahydrofuran-2-ylmethylamino)-9-(tetrahydrofuran-2-yl)purine and positive control (rosmarinic acid). […] Intensity of UVA radiation was evaluated before each irradiation by UVA-meter. […] After 1 hour (37° C., 5% CO2) cell damage was evaluated by analysis of reactive oxygen species (ROS) production. In parallel, intracellular levels of glutathion (GSH) were measured 4 hours (37° C., 5% CO2) after UVA application.
GSH levels in NHDF were evaluated by reaction with 5,5′-Dithiobis(2-nitrobenzoic acid) (DTNB). […] Absorbance was measured at 412 nm. Protein content was analyzed spectrophotometrically by Lowry's method at 680 nm.
Activity of test compounds (not irradiated) in analyzed parameters were evaluated by comparison of experimental data according to the following equation: […]

[2] = system: ROS production; assay: UVA-induced ROS production in NHDF (H2DCFDA); assay type: cell-based, human
Text: as §1, §2
ROS production was evaluated by 2,7-Dichlorodihydrofluorescein diacetate (H2DCFDA). […] Samples were applied on 96-well plate and fluorescence was measured (488/525 nm) (INFINITE M200, Tecan, Switzerland) after centrifugation (10 000 rpm, 4° C., 10 min). Protein content was analyzed spectrophotometrically by bicinchoninic acid at 562 nm (INFINITE M200, Tecan, Switzerland). […]

[3] = non-irradiated NHDF, 2.5-20 μmol/l

c1nc(NCC2CCCO2)c2ncn(C3CCCO3)c2n1 (stereo not shown) [Compound 1, 6-(tetrahydrofuran-2-ylmethylamino)-9-(tetrahydrofuran-2-yl)purine]
protection against GSH depletion in comparison with rosmarinic acid (in words) ([1]; UVA, NHDF): less effective
effect on GSH level in non-irradiated cells (in words) [1, 3]: did not showed negative effect
protection against production of ROS in comparison with rosmarinic acid (in words) ([2]; UVA, NHDF): more effective
effect on ROS production in non-irradiated cells (in words) [2, 3]: did not showed negative effect
